Test results from patent US10519114B2, “Peptidomimetics and methods of using the same” (The Regents of the University of Michigan, priority 2016, dated 2019).

Legend:
[1] = target: T1, rat μ (C6-MOR) opioid receptor (Rattus norvegicus, UniProt P33535); experiment: Radioligand binding assay, [3H]diprenorphine displacement, MOR; conditions: displacement of 0.2 nM [3H]diprenorphine, C6-MOR membranes; mean ± standard error
T1 construct: expressed in transfected cells
In short: (§1)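 Cell membranes bearing rat μ or δ receptors (C6 glioma) or human κ receptors (CHO) were mixed with test peptide and 0.2 nM [3H]diprenorphine, incubated to equilibrium for 1 h at room temperature, filtered and counted. 10 μM naloxone set nonspecific binding.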

[2] = target: T2, rat δ (C6-DOR) opioid receptor (Rattus norvegicus, UniProt P33533); experiment: Radioligand binding assay, [3H]diprenorphine displacement, DOR; conditions: displacement of 0.2 nM [3H]diprenorphine, C6-DOR membranes; mean ± standard error
T2 construct: expressed in transfected cells
T2 sequence (P33533 whole entry): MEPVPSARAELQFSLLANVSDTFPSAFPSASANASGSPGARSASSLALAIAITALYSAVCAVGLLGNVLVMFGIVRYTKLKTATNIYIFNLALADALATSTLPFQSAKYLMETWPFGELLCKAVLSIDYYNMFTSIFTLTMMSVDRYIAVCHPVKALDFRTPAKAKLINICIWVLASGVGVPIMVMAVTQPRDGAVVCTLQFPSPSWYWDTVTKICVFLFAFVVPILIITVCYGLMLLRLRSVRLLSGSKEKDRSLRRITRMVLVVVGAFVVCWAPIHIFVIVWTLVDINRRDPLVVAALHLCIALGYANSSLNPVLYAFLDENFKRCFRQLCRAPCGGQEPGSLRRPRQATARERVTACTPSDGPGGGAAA
In short: as §1

[3] = target: T3, human κ (CHO-KOR) opioid receptor (Homo sapiens, UniProt P41145); experiment: Radioligand binding assay, [3H]diprenorphine displacement, KOR; conditions: displacement of 0.2 nM [3H]diprenorphine, CHO-KOR membranes; mean ± standard error
T3 construct: expressed in transfected cells
T3 sequence (P41145 whole entry): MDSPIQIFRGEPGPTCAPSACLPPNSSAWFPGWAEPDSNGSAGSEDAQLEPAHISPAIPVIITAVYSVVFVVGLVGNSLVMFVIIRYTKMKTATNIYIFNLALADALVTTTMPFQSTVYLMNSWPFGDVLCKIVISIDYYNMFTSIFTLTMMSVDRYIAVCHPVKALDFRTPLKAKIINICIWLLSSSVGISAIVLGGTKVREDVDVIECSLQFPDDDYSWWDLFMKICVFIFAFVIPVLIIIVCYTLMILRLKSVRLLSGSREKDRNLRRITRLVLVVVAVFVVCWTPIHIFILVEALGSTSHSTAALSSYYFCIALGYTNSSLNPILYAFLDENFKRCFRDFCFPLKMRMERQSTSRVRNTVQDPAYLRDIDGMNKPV
In short: as §1

[4] = target: T1, rat μ (C6-MOR) opioid receptor; experiment: Stimulation of [35S]GTPγS binding, MOR; format: biochemical; conditions: for EC50: [35S]GTPγS binding, C6-MOR membranes, mean ± standard error; for Emax: [35S]GTPγS maximal stimulation compared with 10 μM standard DAMGO
In short: (§2)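 Membranes (10–20 μg protein) from C6 glioma cells expressing rat MOR or DOR, or CHO cells expressing human KOR, were incubated 1 h at room temperature with 0.1 nM [35S]GTPγS, 30 μM GDP and test peptides in Tris buffer pH 7.4. Bound label was filtered and counted; maximal stimulation, by nonlinear regression, was relative to 10 μM DAMGO (MOR), DPDPE (DOR) or U69,593 (KOR).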

[5] = target: T2, rat δ (C6-DOR) opioid receptor; experiment: Stimulation of [35S]GTPγS binding, DOR; format: biochemical; conditions: for EC50 (nm) DOR / EC50: [35S]GTPγS binding, C6-DOR membranes, mean ± standard error; for % stimulation DOR / Emax: [35S]GTPγS maximal stimulation compared with 10 μM standard DPDPE
In short: as §2

C57BL/6 mice = experiment: Antinociception, warm water tail withdrawal assay;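 as to Antinociceptive activity: fully efficacious means no withdrawal up to the 20 s cutoff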; format: in vivo; conditions: mouse tail withdrawal; for Antinociceptive activity: 50° C. water bath, cutoff 20 s, ip; for Duration: duration of antinociceptive action, 50° C.
Description: In Vivo Pharmacology. Animals. Adult male C57BL/6 mice weighing between 20 and 30 g at 8-16 weeks old were used for the current experiments (obtained from Jackson Laboratories (Bar Harbor, Me.), Harlan (Indianapolis, Ind.), or bred in-house). Mice were group-housed and had free access to food and water at all times. Experiments were conducted in the housing room, which was maintained on a 12 h light/dark cycle (with lights on at 0700). Each mouse was used only once and experiments were conducted between 11 a.m. and 4 p.m. Studies were performed in accordance with the University of Michigan Committee on the Use and Care of Animals and the Guide for the Care and Use of Laboratory Animals (National Research Council, 2011 publication).
Antinociception. The antinociceptive effects of the compounds disclosed herein and morphine can be evaluated in the warm water tail withdrawal assay using a cumulative dosing procedure. To determine tail withdrawal latencies, each mouse was placed briefly into a plastic, cylindrical restrainer and 2-3 cm of the tail tip was placed into a water bath maintained at 50° C. The latency to withdraw the tail was recorded with a maximum cutoff time of 20 s. […] Each animal received an injection of saline (intraperitoneal, ip) and then 30 min later, the baseline withdrawal latencies were recorded and ranged between 3 and 6 s. Following baseline determinations, three increasing doses (1, 2.2, and 6.8 mg/kg) of 1(4R) were given at 30 min intervals to provide final doses of 1, 3.2, and 10 mg/kg. Thirty minutes after each injection, the tail withdrawal latency was measured as described above. To confirm that 1(4R) was acting at opioid receptors, the cumulative dose response was repeated over the doses 3.2, 10, and 32 mg/kg following a 30 min pretreatment with 1 mg/kg naltrexone (ip). To determine the time-course of antinociceptive action the tail-withdrawal test was performed at varying times following administration of morphine (10 mg/kg, ip) or 1(4R) (10 mg/kg, ip).

[6] = target: T3, human κ (CHO-KOR) opioid receptor; experiment: Stimulation of [35S]GTPγS binding, KOR; format: biochemical; conditions: for EC50 (nm) KOR / EC50: [35S]GTPγS binding, CHO-KOR membranes, mean ± standard error; for % stimulation KOR / Emax: [35S]GTPγS maximal stimulation compared with 10 μM standard U-69,593
In short: as §2

T1 sequence (P33535 whole entry): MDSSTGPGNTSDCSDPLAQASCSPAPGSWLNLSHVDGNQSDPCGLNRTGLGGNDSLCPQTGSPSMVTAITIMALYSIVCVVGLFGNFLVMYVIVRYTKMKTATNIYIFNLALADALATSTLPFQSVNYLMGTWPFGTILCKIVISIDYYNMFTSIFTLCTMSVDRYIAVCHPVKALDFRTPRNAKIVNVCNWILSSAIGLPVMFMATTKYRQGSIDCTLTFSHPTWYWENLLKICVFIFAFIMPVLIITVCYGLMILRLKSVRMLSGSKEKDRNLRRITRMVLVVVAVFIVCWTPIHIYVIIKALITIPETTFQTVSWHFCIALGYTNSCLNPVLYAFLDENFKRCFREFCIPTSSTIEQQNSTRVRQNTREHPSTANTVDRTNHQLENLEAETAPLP

| Structure (SMILES) | Ki [1] [nM] | Ki [2] [nM] | Ki [3] [nM] | EC50 [4] [nM] | Emax [4] [%] | EC50 (nm) DOR [5] | % stimulation DOR [5] | Antinociceptive activity (C57BL/6 mice) | EC50 [5] [nM] | Emax [5] [%] | EC50 (nm) KOR [6] | % stimulation KOR [6] | EC50 [6] [nM] | Emax [6] [%] | Duration (C57BL/6 mice) [min] |
| --- | --- | --- | --- | --- | --- | --- | --- | --- | --- | --- | --- | --- | --- | --- | --- |
| Cc1cc(O)cc(C)c1C[C@H](N)C(=O)N[C@@H]1CCNc2c(Cc3ccccc3)cc(Cc3ccccc3)cc21 [Compound 1041] | 0.73 | 0.86 | 13.2 | 7.25 | 73 | dns | dns | Inactive |  |  |  |  |  |  |  |
| CCCc1cc(Cc2ccccc2)cc2c1NCC[C@H]2NC(=O)[C@@H](N)Cc1c(C)cc(O)cc1C [Compound 1056] | 0.64 ± 0.08 | 5.89 ± 1.5 | 98.4 ± 18.2 | 23.3 ± 6.94 | 89.5 ± 6.27 |  |  | Inactive | 307 ± 28.6 | 35.7 ± 2.62 | dns | dns |  |  |  |
| Cc1cc(O)cc(C)c1C[C@H](N)C(=O)N[C@@H]1CCNc2c1cc(Cc1ccccc1)cc2C(C)(C)C [Compound 1057] | 0.91 ± 0.4 | 3.78 ± 0.66 | 64.7 ± 17.8 | 9.87 ± 3.55 | 83.2 ± 4.6 |  |  | Partially active | 238 ± 39.3 | 57.9 ± 14 | dns | dns |  |  |  |
| Cc1cc(O)cc(C)c1C[C@H](N)C(=O)N[C@@H]1CCNc2c(F)cc(Cc3ccccc3)cc21 [Compound 1090] |  |  |  |  |  |  |  | Inactive |  |  |  |  |  |  |  |
| Cc1cc(O)cc(C)c1C[C@H](N)C(=O)N[C@@H]1CCNc2c(-c3ccoc3)cc(Cc3ccccc3)cc21 [Compound 1094] | 0.34 ± 0.08 | 3.49 ± 0.55 | 27.9 ± 6.24 | 9.77 ± 6.34 | 103 ± 5 |  |  | Inactive | 74.9 ± 61.5 | 36.7 ± 5.53 |  |  | 290 | 29 |  |
| Cc1cc(O)cc(C)c1C[C@H](N)C(=O)N[C@@H]1CCNc2c(CN3CCCCC3)cc(Cc3ccccc3)cc21 [Compound 1097] | 0.07 ± 0.03 | 2.41 | 0.71 | 2.32 ± 0.21 | 93 ± 1.67 |  |  | Inactive |  |  |  |  |  |  |  |
| Cc1cc(O)cc(C)c1C[C@H](N)C(=O)N[C@@H]1CCNc2c(CCc3ccccc3)cc(Cc3ccccc3)cc21 [Compound 1098] | 0.64 ± 0.34 | 0.69 ± 0.03 | 27.5 ± 7.81 | 44.4 ± 16.6 | 78.4 ± 1.26 | dns | dns | Inactive |  |  | dns | dns |  |  |  |
| Cc1cc(O)cc(C)c1C[C@H](N)C(=O)N[C@@H]1CCNc2c(CN3CCOCC3)cc(Cc3ccccc3)cc21 [Compound 1099] | 0.15 ± 0.04 | 2.61 ± 0.79 | 19.4 ± 8.53 | 1.84 ± 0.41 | 96.1 ± 1.76 |  |  | Inactive | 172 ± 65.8 | 29 ± 6.78 | dns | dns |  |  |  |
| Cc1cc(O)cc(C)c1C[C@H](N)C(=O)N[C@@H]1CCNc2c(C)cc(Cc3ccccc3)cc21 [Compound 1100] | 2.63 | 1.09 | 18.3 |  |  |  |  | Fully efficacious |  |  |  |  |  |  | 90 |
| CCOC(=O)c1cc(Cc2ccccc2)cc2c1NCC[C@H]2NC(=O)[C@@H](N)Cc1c(C)cc(O)cc1C [Compound 1102] | 1.01 ± 0.28 | 4.2 | 48.7 | 4.91 ± 0.28 | 70.5 ± 2.61 | dns | dns | Fully efficacious |  |  |  |  |  |  | 150 |
| Cc1cc(O)cc(C)c1C[C@H](N)C(=O)N[C@@H]1CCNc2c(C(=O)NCc3ccccc3)cc(Cc3ccccc3)cc21 [Compound 1104] | 0.36 | 2.17 | 29.4 | 4.18 | 79 | dns | dns | Inactive |  |  |  |  |  |  |  |
| CCCCc1cc(Cc2ccccc2)cc2c1NCC[C@H]2NC(=O)[C@@H](N)Cc1c(C)cc(O)cc1C [Compound 1126] | 0.75 ± 0.4 | 3.55 ± 0.46 | 34.4 ± 4.7 | 17.9 ± 5.83 | 85 ± 2 |  |  | Fully efficacious | 200 ± 77 | 24.9 ± 4.43 | dns | dns |  |  | 150 |
| CCc1cc(Cc2ccccc2)cc2c1NCC[C@H]2NC(=O)[C@@H](N)Cc1c(C)cc(O)cc1C [Compound 1127] | 0.05 | 4.6 | 44 | 37 | 75 |  |  | Fully efficacious | 23 | 48 | dns | dns |  |  | 60 |
| Cc1cc(O)cc(C)c1C[C@H](N)C(=O)N[C@@H]1CCNc2c(Br)cc(Cc3ccccc3)cc21 [Compound 1128] | 0.2 | 2.2 | 27 | 1.2 | 73 |  |  | Inactive | 36 | 69 |  |  | 300 | 30 |  |
| Cc1cc(O)cc(C)c1C[C@H](N)C(=O)N[C@@H]1CCNc2c1cc(Cc1ccccc1)cc2C(F)(F)F [Compound 1129] | 0.3 | 3.7 | 21 | 1.8 | 70 |  |  | Inactive | 50 | 42 |  |  | 600 | 17 |  |
| Cc1cc(O)cc(C)c1C[C@H](N)C(=O)N[C@@H]1CCNc2c(C(=O)O)cc(Cc3ccccc3)cc21 [Compound 1130] | 0.6 | 2.3 | 700 | 4 | 60 | dns | dns | Inactive |  |  | dns | dns |  |  |  |
